In patent publication US9695155B2, “Herbicidal substituted pyrimidinyloxy benzene compounds” (E. I. DU PONT DE NEMOURS AND COMPANY, priority 2013, dated 2017):

How the values were obtained:
barnyardgrass [1] = experiment: Test A preemergence; format: in vivo, Echinochloa crus-galli
How it was run: (§1)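 Greenhouse pot test, loam/sand soil. Formulation: non-phytotoxic solvent mix plus surfactant. Pre: directed spray onto soil after sowing. Post: plants at 1–2 leaf, 2–10 cm. Rated visually vs untreated controls at ~10 d, 0 (no effect) to 100 (complete control).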

kochia [2] = experiment: Test A preemergence; format: in vivo, Kochia scoparia; details: 1000 g ai/ha, 0 to 100 scale, 0 no effect, 100 complete control, approx. 10 days
From the text: (§2) Seeds of plant species selected from barnyardgrass (Echinochloa crus-galli), kochia (Kochia scoparia), ragweed (common ragweed, Ambrosia elatior), Italian ryegrass (Lolium multiflorum), large (Lg) crabgrass (Digitaria sanguinalis), giant foxtail (Setaria faberii), morningglory (Ipomoea spp.), pigweed (Amaranthus retroflexus), velvetleaf (Abutilon theophrasti), wheat (Triticum aestivum), and corn (Zea mays) were planted into a blend of loam soil and sand and treated preemergence with a directed soil spray using test chemicals formulated in a non-phytotoxic solvent mixture which included a surfactant.
(§3) At the same time, plants selected from these crop and weed species and also blackgrass (Alopecurus myosuroides), and galium (catchweed bedstraw, Galium aparine) were planted in pots containing the same blend of loam soil and sand and treated with postemergence applications of test chemicals formulated in the same manner. Plants ranged in height from 2 to 10 cm and were in the one- to two-leaf stage for the postemergence treatment. Treated plants and untreated controls were maintained in a greenhouse for approximately 10 days, after which time all treated plants were compared to untreated controls and visually evaluated for injury. Plant response ratings, summarized in Table A, are based on a 0 to 100 scale where 0 is no effect and 100 is complete control. A dash (-) response means no test result.

ragweed [3] = experiment: Test A preemergence; format: in vivo, Ambrosia elatior; details: 1000 g ai/ha, 0 to 100 scale, 0 no effect, 100 complete control, approx. 10 days
From the text: as §2, §3

Italian ryegrass [4] = experiment: Test A preemergence; format: in vivo, Lolium multiflorum; details: 1000 g ai/ha, 0 to 100 scale, 0 no effect, 100 complete control, approx. 10 days
From the text: as §2, §3

giant foxtail [5] = experiment: Test A preemergence; format: in vivo, Setaria faberii
How it was run: as §1

pigweed [6] = experiment: Test A preemergence; format: in vivo, Amaranthus retroflexus
How it was run: as §1

barnyardgrass [7] = experiment: Test A postemergence; format: in vivo, Echinochloa crus-galli
How it was run: as §1

kochia [8] = experiment: Test A postemergence; format: in vivo, Kochia scoparia; details: 1000 g ai/ha, 0 to 100 scale, 0 no effect, 100 complete control
From the text: as §2, §3

ragweed [9] = experiment: Test A postemergence; format: in vivo, Ambrosia elatior; details: 1000 g ai/ha, 0 to 100 scale, 0 no effect, 100 complete control
From the text: as §2, §3

Italian ryegrass [10] = experiment: Test A postemergence; format: in vivo, Lolium multiflorum; details: 1000 g ai/ha, 0 to 100 scale, 0 no effect, 100 complete control
From the text: as §2, §3

giant foxtail [11] = experiment: Test A postemergence; format: in vivo, Setaria faberii
How it was run: as §1

pigweed [12] = experiment: Test A postemergence; format: in vivo, Amaranthus retroflexus
How it was run: as §1

wheat [13] = experiment: Test A postemergence; format: in vivo, Triticum aestivum
How it was run: as §1

corn [14] = experiment: Test A postemergence; format: in vivo, Zea mays
How it was run: as §1

blackgrass = experiment: Test A postemergence; format: in vivo, Alopecurus myosuroides; details: 1000 g ai/ha, 0 to 100 scale, 0 no effect, 100 complete control
From the text: as §2, §3

galium = experiment: Test A postemergence; format: in vivo, Galium aparine; details: 1000 g ai/ha, 0 to 100 scale, 0 no effect, 100 complete control
From the text: as §2, §3

large (Lg) crabgrass [15] = experiment: Test A preemergence; format: in vivo, Digitaria sanguinalis
How it was run: as §1

morningglory [16] = experiment: Test A preemergence; format: in vivo, Ipomoea spp.
How it was run: as §1

velvetleaf [17] = experiment: Test A preemergence; format: in vivo, Abutilon theophrasti
How it was run: as §1

wheat [18] = experiment: Test A preemergence; format: in vivo, Triticum aestivum
How it was run: as §1

corn [19] = experiment: Test A preemergence; format: in vivo, Zea mays
How it was run: as §1

large (Lg) crabgrass [20] = experiment: Test A postemergence; format: in vivo, Digitaria sanguinalis
How it was run: as §1

morningglory [21] = experiment: Test A postemergence; format: in vivo, Ipomoea spp.
How it was run: as §1

velvetleaf [22] = experiment: Test A postemergence; format: in vivo, Abutilon theophrasti
How it was run: as §1

rice = experiment: Test B flooded paddy test; format: in vivo, Oryza sativa; details: Flood, 250 g ai/ha; 0 to 100 scale where 0 is no effect and 100 is complete control
How it was run: (§4)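 Greenhouse flooded-pot test: compounds dosed into 3 cm standing water over 2-leaf plants, flood held constant. Rated visually after 13–15 days on 0–100 (complete control = 100); a dash marks no test result.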

sedge, umbrella = experiment: Test B flooded paddy test; format: in vivo, Cyperus difformis; details: Flood, 250 g ai/ha; 0 to 100 scale where 0 is no effect and 100 is complete control
How it was run: as §4

Heteranthera limosa = experiment: Test B flooded paddy test; format: in vivo; details: Flood, 250 g ai/ha; 0 to 100 scale where 0 is no effect and 100 is complete control
How it was run: as §4

barnyardgrass [23] = experiment: Test B flooded paddy test; format: in vivo, Echinochloa crus-galli; details: Flood, 250 g ai/ha; 0 to 100 scale where 0 is no effect and 100 is complete control
How it was run: as §4

[24] = 1000 g ai/ha, 0 to 100 scale, 0 no effect, 100 complete control, approx. 10 days
[25] = 1000 g ai/ha, 0 to 100 scale, 0 no effect, 100 complete control
[26] = 500 g ai/ha, 0 to 100 scale where 0 is no effect and 100 is complete control
[27] = 125 g ai/ha, 0 to 100 scale where 0 is no effect and 100 is complete control

## CCN(CC)C(=O)c1cccc(Oc2ncc(Cl)cn2)c1-n1cc(C(F)(F)F)cn1 [Compound 263]
Barnyardgrass [1]; [24]
  Barnyardgrass plant response rating: 0
Kochia [2]
  Kochia plant response rating: 20
Ragweed [3]
  Ragweed plant response rating: 0
Italian ryegrass [4]
  Ryegrass, Italian plant response rating: 0
Giant foxtail [5]; [24]
  Foxtail, Giant plant response rating: 50
Pigweed [6]; [24]
  Pigweed plant response rating: 10
Barnyardgrass [7]; [25]
  Plant response rating, Barnyardgrass: 0
Kochia [8]
  Plant response rating, Kochia: 10
Ragweed [9]
  Plant response rating, Ragweed: 0
Italian ryegrass [10]
  Plant response rating, Ryegrass, Italian: 0
Giant foxtail [11]; [25]
  Plant response rating, Foxtail, Giant: 0
Pigweed [12]; [25]
  Plant response rating, Pigweed: 10
Wheat [13]; [25]
  Plant response rating, Wheat: 0
Corn [14]; [25]
  Plant response rating, Corn: 0
blackgrass
  Plant response rating, Blackgrass: 20
galium
  Plant response rating, Galium: 10

## FC(F)(F)COc1cccc(Oc2ncc(Cl)cn2)c1-n1cc(Br)cn1 [Compound 69]
Barnyardgrass [1]; [25]
  Plant response rating, Barnyardgrass: 70
Large (Lg) crabgrass [15]; [25]
  Plant response rating, Crabgrass, Large: 90
Giant foxtail [5]; [24]
  Foxtail, Giant plant response rating: 90
Morningglory [16]; [24]
  Morningglory plant response rating: 10
Pigweed [6]; [24]
  Pigweed plant response rating: 100
Velvetleaf [17]; [24]
  Velvetleaf plant response rating: 80
Wheat [18]; [24]
  Wheat plant response rating: 20
Corn [19]; [25]
  Plant response rating, Corn: 0
Barnyardgrass [7]; [25]
  Plant response rating, Barnyardgrass: 50
Large (Lg) crabgrass [20]; [25]
  Plant response rating, Crabgrass, Large: 80
Giant foxtail [11]; [25]
  Plant response rating, Foxtail, Giant: 70
Morningglory [21]; [25]
  Plant response rating, Morningglory: 30
Pigweed [12]; [25]
  Plant response rating, Pigweed: 100
Velvetleaf [22]; [25]
  Plant response rating, Velvetleaf: 60
Wheat [13]; [25]
  Plant response rating, Wheat: 30
Corn [14]; [25]
  Plant response rating, Corn: 20
rice
  Plant response rating, Rice: 0
sedge, umbrella
  Plant response rating, Sedge, Umbrella: 0
Heteranthera limosa
  Plant response rating, Ducksalad: 0
Barnyardgrass [23]
  Plant response rating, Barnyardgrass: 0

## FC(F)c1cccc(Oc2ncc(Cl)cn2)c1-n1cc(Cl)cn1 [Compound 209]
Barnyardgrass [1]; 125 g ai/ha
  Barnyardgrass plant response rating (0 to 100 scale, 0 is no effect, 100 is complete control): 60
Barnyardgrass [1]; [26]
  Barnyardgrass plant response rating: 100
Large (Lg) crabgrass [15]; 125 g ai/ha
  Crabgrass, Large plant response rating (0 to 100 scale): 100
Large (Lg) crabgrass [15]; [26]
  Crabgrass, Large plant response rating: 100
Giant foxtail [5]; 125 g ai/ha
  Foxtail, Giant plant response rating (0 to 100 scale): 100
Giant foxtail [5]; [26]
  Foxtail, Giant plant response rating: 100
Morningglory [16]; 125 g ai/ha
  Morningglory plant response rating (0 to 100 scale): 10
Morningglory [16]; [26]
  Morningglory plant response rating: 70
Pigweed [6]; 125 g ai/ha
  Pigweed plant response rating (0 to 100 scale): 100
Pigweed [6]; [26]
  Pigweed plant response rating: 100
Velvetleaf [17]; 125 g ai/ha
  Velvetleaf plant response rating (0 to 100 scale): 90
Velvetleaf [17]; [26]
  Velvetleaf plant response rating: 90
Wheat [18]; 125 g ai/ha
  Wheat plant response rating (0 to 100 scale): 0
Wheat [18]; [26]
  Wheat plant response rating: 20
Corn [19]; 125 g ai/ha
  Corn plant response rating (0 to 100 scale): 0
Corn [19]; [26]
  Corn plant response rating: 20
Barnyardgrass [7]; [27]
  Barnyardgrass plant response rating: 40
Barnyardgrass [7]; [26]
  Plant response rating, Barnyardgrass: 100
Large (Lg) crabgrass [20]; [27]
  Crabgrass, Large plant response rating: 70
Large (Lg) crabgrass [20]; [26]
  Plant response rating, Crabgrass, Large: 90
Giant foxtail [11]; [27]
  Foxtail, Giant plant response rating: 70
Giant foxtail [11]; [26]
  Plant response rating, Foxtail, Giant: 90
Morningglory [21]; [27]
  Morningglory plant response rating: 50
Morningglory [21]; [26]
  Plant response rating, Morningglory: 90
Pigweed [12]; [27]
  Pigweed plant response rating: 100
Pigweed [12]; [26]
  Plant response rating, Pigweed: 100
Velvetleaf [22]; [27]
  Velvetleaf plant response rating: 100
Velvetleaf [22]; [26]
  Plant response rating, Velvetleaf: 100
Wheat [13]; [27]
  Wheat plant response rating: 0
Wheat [13]; [26]
  Plant response rating, Wheat: 70
Corn [14]; [27]
  Corn plant response rating: 30
Corn [14]; [26]
  Plant response rating, Corn: 70
rice
  Plant response rating, Rice: 0
sedge, umbrella
  Plant response rating, Sedge, Umbrella: 60
Heteranthera limosa
  Plant response rating, Ducksalad: 75
Barnyardgrass [23]
  Plant response rating, Barnyardgrass: 30
